# Measurements from patent publication US20230340012A1, “NATURAL AND SYNTHETIC COMPOUNDS FOR TREATING CANCER AND OTHER DISEASES” (PACIFIC ARROW LIMITED, priority 2009, published 2023).
# Where “and” joins values, the source holds several entries; their conditions need not be identical. Equal values may be shown once.
# Columns and labels:
# OVCAR3 = test: MTT assay, ovary (OVCAR3); format: cell-based, human; settings: for IC50 of ovary (OVCAR3): MTT
# Description: (§1) Cells. HTB-9 (bladder), HeLa-S3 (cervix), DU145 (prostate), H460 (lung), MCF-7 (breast), K562 (leukemia), HCT116 (colon), HepG2 (liver), U2OS (bone), T98G (brain), SK-MEL-5 (Skin) and OVCAR 3, ES2 (ovary), Pancreas (Capan), Mouth (KB), Kidney(A498).
# (§2) MTT Assay. The procedure for MTT assay followed the method described by Carmichael et al. (1987) with modifications. The cells were seeded into a 96-well plate at for 24 hours before drug-treatment. The cells were then exposed to the drugs for 48, 72, or 96 hours. After the drug-treatment, MTT (0.5 mg/mL) was added to cultures and incubated for an hour. The formazan (product of the reduction of tetrazolium by viable cells) formed and was dissolved with DMSO and the O.D. at 490 nm, and was measured by an ELISA reader. The MTT level of the cells before drug-treatment was also measured (T0). The % cell-growth (%G) is calculated as: %G = (TD-T0 / TC-T0) x 100(1), where TC or TD represents O.D. readings of control or drug-treated cells. When T0 > TD, then the cytotoxicity (LC) expressed as % of the control is calculated as: %LC = (TD-T0 / T0) × 100(2).
# ES2 = test: MTT assay, ovary (ES2); format: cell-based, human
# Description: as §1, §2
# Method: A. Cells • -WI38 is a Normal Lung fibroblast. Cells were grown in MEM medium supplemented with 10% FCS, antibiotics and glutamine. 20 K cells were seeded per well (96-welled plate) for one day before drug-treatment • -ES2 is an Ovary Clear cells carcinoma. Cells were grown in RPMI-1640 medium supplemented with 10% FCS, antibiotics and glutamine. 10 K cells were seeded per well (96-welled plate) for one day before drug-treatment.
# B. Drug treatment: • -Drug: Tig-S. stored as 1000x stock solution in DMSO. • -Drug concentration used: from 0.15 - 20 ug/ml. • -Drug-treatment was carried out for 2 days (ES2) or 6 days (WI38). For the 6 days incubation, cells were fed with fresh medium (with drug) on day 3 and 5.
# C. At the end of the drug-treatment, cytotoxic test was performed with MTT assay.
# K562 = test: MTT assay, leukemia (K562); format: cell-based, human
# Description: as §1, §2
# Fibronectin = Fibronectin secretion experiment (Western blot); format: cell-based; settings: bladder, cervix, prostate, lung, breast, leukemia, colon, liver, bone, brain, skin, ovary, pancreas, mouth, kidney cells; 24 hours
# Description: Western blot is applied in this invention as a method to detect the specific proteins in treated and untreated cells with compounds in this invention, wherein the cells are bladder, cervix, prostate, lung, breast, leukemia, colon, liver, bone, brain, Skin, ovary, Pancreas(Capan), Mouth(KB), Kidney.
# Cells: targeted cells were grown in RPMI 1640 medium. 1.5 million cells were seeded in a T25 flask and grown for 24 hours before drug-treatment.
# Drug-treatment: Cells cultures were replaced with fresh RPMI medium containing either 2.5 ul of DMSO (as control) [D]; or 10, 20, 30, 40, 80 ug/ml of tested compounds.
# After 24 hours, aliquot of culture medium was taken out for Fibronectin determination (Western blot method).
# Cell viability at 24 hours was determined by MTT assay. Cultures were replaced with RPMI medium (5 ml) with MTT and incubated for an hour. The formation of formazan was dissolved in 10 ml of DMSO and OD at 570 nm was measured (MTT units). Western Blot: Spent culture medium was mixed with SDS sample buffer, boiled for 3 minutes before loading to SDS gel. Samples were applied to a 6-10% SDS gel and electrophoresis was conducted with 100 volts for 2 hours. Protein was transferred to a nitrocellulose membrane electrophoretically. The nitrocellulose blot was incubated with the first antibody and second antibody (AP conjugated, Promega S3721). The immuno-bands were developed with BCIP/NBT color development system.
# Determination of Western blot band intensity: The band-images of Western blot were captured with a digital camera and the intensity of bands was determined using “Image J” software.
# cancer cells = test: Inhibition of cancer growth, cancer invasion, cell invasion or cancer cell invasion; format: cell-based
# Text: The program is based on our purification methods and biological assays including the MTT assay. See International Application No. PCT/US05/31900, filed Sep. 7, 2005, U.S. Serial No. 11/289,142, filed Nov. 28, 2005, and U.S. Serial No. 11/131551, filed May 17, 2005, and PCT/US2008/002086, 1188-ALA-PCT, filed Feb. 15, 2008, 12/344,682, 1020-B1-US, filed Dec. 29, 2008. The details of Analysis of gene expression of ES2 cells after Y-treatment by Microarray, Data Analysis Methods and Western blot in PCT/US2008/002086, 1188-ALA-PCT, filed Feb. 15, 2008, and the cell invasion experiments methods in International Application PCT/US2010/0042240, filed Jul. 16, 2010.
# Hey8A cells = test: Inhibition of cell adhesion, Hey8A; format: cell-based; settings: 5 ug/ml, 5 hours
# Description: Methods and Results. ES2 or Hey8A cells were plated in T25 flasks with medium containing 5 ug/ml of compounds selected from structure (2A) including E4A-Tig-R, E4A-Tig-V, E4A-Tig-S, E4A-Tig-N, E4A-Tig-Q, E4A-Tig-T. Cultures were incubated for 5 hours. Attached cells were removed from flasks by trypsinization and the numbers/amounts were counted. Compared to no drug controls, 80 ± 4% of ES2 cells and 60 ± 4% of Hey8A cells were found attached to flasks under this condition. At 5 ug/ml of above compounds, over 90% of unattached cells are alive as determined by the trypan Blue exclusion assay and by their ability to re-attach to flasks when plating in medium without tested compounds. However, with 10 ug/ml tested compounds, less than 40% of cells attached to flasks and many of them are dead cells.
# SK-Mel-5 = test: MTT assay, skin (SK-Mel-5); format: cell-based, human
# Description: as §1, §2
# HepG2 = test: MTT assay, liver (HepG2); format: cell-based, human
# Description: as §1, §2
# HCT116 = test: MTT assay, colon (HCT116); format: cell-based, human
# Description: as §1, §2
# DU145 = test: MTT assay, prostate (DU145); format: cell-based, human
# Description: as §1, §2
# HTB-9 = test: MTT assay, bladder (HTB-9); format: cell-based, human
# Description: as §1, §2
# U2OS = test: MTT assay, bone (U2OS); format: cell-based, human
# Description: as §1, §2
# HeLa = test: MTT assay, cervix (HeLa); format: cell-based, human
# Description: as §1, §2
Compound,IC50 of ovary (OVCAR3) (OVCAR3) [µg/mL],IC50 of ovary (ES2) (ES2; MTT),IC50 of leukemia (K562) (K562) [µg/mL],inhibition of fibronectin secretion (Fibronectin),anti-cancer activity (cancer cells),Hey8A cells attached to flasks compared to no drug controls (Hey8A cells) [%],IC50 of skin (SK-Mel-5) (SK-Mel-5) [µg/mL],IC50 of liver (HepG2) (HepG2) [µg/mL],IC50 of colon (HCT116) (HCT116) [µg/mL],IC50 of prostate (DU145) (DU145) [µg/mL],IC50 of bladder (HTB-9) (HTB-9) [µg/mL],IC50 of bone (U2OS) (U2OS) [µg/mL],IC50 of cervix (HeLa) (HeLa) [µg/mL],"IC50, ovarian cancer (OCAR3) cells' growth (OVCAR3; FIG. 37) [µg/mL]","IC50, ES2 cells (ES2; 2 days drug treatment, MTT) [µg/mL]","IC100, ES2 cells (ES2; MTT OD after treatment equal to OD before treatment, 2 days)",IC50 in ES2 cells (ES2; MTT assay with low doses of Tig-S) [µg/mL],"% of the control cell growth, ES2 (ES2; at 10 ug/ml) [%]","MTT OD as % of the original value, ES2 (ES2; at 10 ug/ml) [%]"
"24,28-O-Tigloyl-3β,16α, 21β, 22a, 24β, 28-hexahydroxyolean-12-ene [Tig-R]",5.8,2.8 ug/ml and about 2.8 ug/ml,2,20-40%,have anti-cancer activities,60 ± 4,5.1,6,5.2,3.6,2.5,4.5,,,,,,,
CC=C(C)C(=O)OCC1(C)C(O)CCC2(C)C1CCC1(C)C2CC=C2C3CC(C)(C)C(O)C(O)C3(CO)C(O)CC21C (stereo not shown) [Tig-N],18,9 µg/mL,6,20-40%,have anti-cancer activities,60 ± 4,15,18,15,4.8,7.5,15,15,,,,,,
CC=C(C)C(=O)OCC1(C)C(O)CCC2(C)C1CCC1(C)C2CC=C2C3CC(C)(C)C(OC(=O)C(C)=CC)C(O)C3(CO)C(O)CC21C (stereo not shown) [Tig-S],6.5,,4.3,20-40%,have anti-cancer activities,60 ± 4,5.8,8.5,6.6,4.3,3.5,5.2,7,2.5,0.3,0.16 to 0.3 µg/mL and 0.15 to 0.3 µg/mL,~0.1,10,12
CC=C(C)C(=O)OCC1(C)C(O)CCC2(C)C1CCC1(C)C2CC=C2C3CC(C)(C)C(O)C(OC(=O)C(C)=CC)C3(COC(=O)C(C)=CC)C(O)CC21C (stereo not shown) [Tig-T],25,14 µg/mL,9,20-40%,have anti-cancer activities,60 ± 4,22,26,23,16,,20,18,,,,,,
